# In patent US11633411B2, “Methods of treating sepsis using anti-sepsis lipid A (ASLA) based therapeutics” (UNIVERSITY OF MARYLAND, BALTIMORE, priority 2016, dated 2023):
# pEC50: −log10 of the molar value.
# How the values were obtained:
# [1] = test system: C57BL6 mice; experiment: Lethal endotoxic shock mouse model (25 mg/kg E. coli W3110 LPS i.p.); format: in vivo; settings: for survival rate: preliminary experiment; for survival: repeat experiment
# Protocol: FIG. 4. ALSA 468 therapeutically rescues mice from lethal endotoxic shock. Lethal endotoxic shock was induced in 6-8 week old C57BL6 mice by injecting 25 mg/kg of E. coli LPS (strain W3110) i.p. […]
# To determine if ASLA 468 is capable of therapeutically rescuing mice that have received a lethal dose of pro-inflammatory Ec LPS, an in vivo mouse model of lethal endotoxin septic shock was used. Medzhitov, R. Nat. Rev. Immunol. 2001, 1, 135-145; Remick et al., Shock 2000, 13, 110. […] These pilot experiments provide a proof-of-principle that molecules found to compete with pro-inflammatory LPS in vitro are also capable of combating symptoms of septic shock in vivo. Future sepsis models to be used in this proposal will account for bacterial clearance after antibiotic treatment, in vivo location and concentration of LPS, and the structural relationship between ASLA and MD2/TLR4 complex that will address some shortcomings of previous anti-sepsis therapeutics, which is the scientific premise of this proposal. Raetz et al., Annu. Rev. Biochem. 2002, 71, 635-700; Raetz et al., J. Lipid Res. 2009, 50 Suppl, S103-108; Needham et al., S. Nature Reviews Microbiology 2013, 11, 467-481; Ernst et al., Science 1999, 286, 1561-1565; Miller et al., Nature Reviews Microbiology 2005, 3, 36-46; Siegemund et al., Nat Immunol 2012, 13, 1031-1033; Rietschel et al., FASEB J. 1994, 8, 217-225; van Lieshout et al., Inflamm. Res. 2014, 63, 927-933; Buras et al., Nat Rev Drug Discov 2005, 4, 854-865.
# Experimental Setup: Similarly to the non-lethal endotoxic shock model, in this in vivo model of lethal septic shock 6-week old C57BL6 mice were injected intraperitoneally with either 25 mg/kg E. coli (W3110) LPS, co-administered 25 mg/kg Ec LPS+10 mg/kg BECC468@26, or 25 mg/kg Ec LPS followed by 10 mg/kg BECC468@26 four hours later. Mice were monitored for survival every 12 hours post-injection. n=6 mice for each group, percent survival for each group is graphed.
# [2] = biological target: T1, TLR4 (Homo sapiens, UniProt O00206+Q9Y6Y9); experiment: NF-κB activation screen in THP-1 Dual reporter cells (SEAP under NFκB promoter); format: cell-based; set-up: host or cells: THP-1 Dual reporter cells
# T1 sequence (O00206 24-839): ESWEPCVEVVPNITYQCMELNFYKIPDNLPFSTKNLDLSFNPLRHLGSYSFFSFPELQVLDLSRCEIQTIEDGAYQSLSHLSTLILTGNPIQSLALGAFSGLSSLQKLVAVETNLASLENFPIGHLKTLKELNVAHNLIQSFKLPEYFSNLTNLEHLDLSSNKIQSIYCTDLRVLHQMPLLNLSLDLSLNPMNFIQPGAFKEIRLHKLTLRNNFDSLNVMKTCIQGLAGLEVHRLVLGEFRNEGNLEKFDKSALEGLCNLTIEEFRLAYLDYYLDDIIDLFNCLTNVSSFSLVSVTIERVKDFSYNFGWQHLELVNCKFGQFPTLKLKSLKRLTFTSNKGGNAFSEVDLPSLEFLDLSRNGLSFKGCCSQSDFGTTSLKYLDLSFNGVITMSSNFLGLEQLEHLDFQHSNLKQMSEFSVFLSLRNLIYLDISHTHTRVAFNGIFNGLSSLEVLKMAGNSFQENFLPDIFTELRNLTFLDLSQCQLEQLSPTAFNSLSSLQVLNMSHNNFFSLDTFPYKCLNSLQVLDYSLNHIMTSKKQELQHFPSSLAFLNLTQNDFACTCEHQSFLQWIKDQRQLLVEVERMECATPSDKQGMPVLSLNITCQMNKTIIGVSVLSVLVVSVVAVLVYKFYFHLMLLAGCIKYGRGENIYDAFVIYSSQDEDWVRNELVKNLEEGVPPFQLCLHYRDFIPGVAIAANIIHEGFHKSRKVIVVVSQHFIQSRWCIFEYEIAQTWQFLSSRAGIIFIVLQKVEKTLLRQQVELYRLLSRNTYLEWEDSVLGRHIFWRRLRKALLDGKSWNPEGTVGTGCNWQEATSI
# T1 sequence (Q9Y6Y9 17-160 limits assumed): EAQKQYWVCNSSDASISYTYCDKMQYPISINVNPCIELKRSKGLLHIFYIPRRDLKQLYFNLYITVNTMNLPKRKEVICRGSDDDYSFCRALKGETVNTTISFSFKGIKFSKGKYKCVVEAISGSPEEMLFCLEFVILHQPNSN
# Protocol: To identify the most successful ASLA candidates to be tested for efficacy in vivo, we will stimulate both human and mouse cell cultures with increasing concentrations (0.01 ng/ml, 0.1 ng/ml, 1 ng/ml, 10 ng/ml, 100 ng/ml) of novel lipid A preparations for 4 and 24 hours. All in vitro assays will be run in biological triplicate to increase the scientific rigor of experiments. Activation of inflammatory pathways will be investigated by stimulating THP-1 cells (ATTC), a human monocytic cell line, followed by multiplex analysis of cytokines in the supernatant minimally including TNF-α, IL-8, and IL-6. We will also screen ASLA molecules using THP-1 Dual (Invitrogen) and HEK293 cells transfected with human or mouse MD2/TLR4 (Invitrogen), which have an easily detectable SEAP transcript under the NF-kB promoter to quickly evaluate the potential for these ASLA molecules to inhibit MyD88-NF-kB activation. To account for authentication of key biological resources, all cell lines were purchased from and verified by either ATCC or Invitrogen within the past year and cells used in experiments have been passaged less than 15 times since purchase. Together, these assays will illustrate a lack of inflammatory activation when cells are stimulated with the ASLA molecules. […]
# [3] = biological target: T1, TLR4; experiment: Competitive inhibition of pro-inflammatory LPS in THP-1 Dual reporter cells; settings: Se LPS plus ASLA 470
# Protocol: THP-1 Dual cells (Invitrogen) contain an easily detected secreted alkaline phosphatase (SEAP) under the NFκB promoter. E. coli LPS (circles), ALSA 468 (squares), and E. coli LPS+a constant 10 ng/mL ASLA 468 (triangles) are cultured with THP-1 Dual over a 5-log dilution series, activation of NFκB, as measured by SEAP expression, is pictured.
# To investigate the inflammatory properties of BECC synthesized molecules ASLA 468 and 470, THP-1 Dual cells (Invitrogen) were used to screen for NF-κB activation.
# Experimental Setup: Reporter cell line THP-1 Duals (Invitrogen) are incubated for 18 hours over a five-log dose range with either Salmonella enterica (Se) LPS alone, BECC molecule alone (467@26, 468@26, 468@37, 469@26, 470@26, 470@37), or increasing doses of Se with a constant dose of BECC molecule (10 ng/mL). THP-1 Dual cells have a SEAP reporter under the NFκB promoter that is easily quantified in the supernatant of cultured cells. After 18 hours of culture supernatant is removed from the cell culture and SEAP is quantified to indicate the level of NFκB activation/inflammation. OD@620 nm can be directly extrapolated to represent relative amounts of NFκB activation. […] Mean±SD of duplicate samples is graphed for each data point.
Compound,survival rate ([1]; 10 mg/kg given 4 hours after 25 mg/kg Ec LPS) [%],survival rate ([1]; 10 mg/kg given simultaneously with 25 mg/kg Ec LPS) [%],pathogenic symptoms ([1]; mice injected with ASLA 468 alone),survival ([1]; treated 8 hours post-induction) [%],survival ([1]; treated 12 hours post-induction) [%],pEC50 [2],"agonist category (full, partial, or weak agonist) for NF-κB activation ([2]; five-log dilution series, compared to Ec LPS positive control)",fold increase of the EC50 of Se LPS [3] [fold]
CCCCCC/C=C\CCCCCCCC(=O)OC(CCCCCCCCCCC)CC(=O)NC1[C@H](OCC2OC(OP(=O)(O)O)C(NC(=O)CC(O)CCCCCCCCCCC)[C@@H](OC(=O)CC(O)CCCCCCCCCCC)[C@@H]2O)OC(CO)C(O)[C@@H]1OC(=O)CC(CCCCCCCCCCC)OC(=O)CCCCCCCCCCC (some centres unmarked) [ASLA 468],66.6,100,no signs of pathogenic symptoms,100,66.6,7.16,–,–
CCCCCC/C=C\CCCCCCCC(=O)OC(CCCCCCCCCCC)CC(=O)NC1[C@H](OCC2OC(OP(=O)(O)O)C(NC(=O)CC(CCCCCCCCCCC)OC(=O)CCCCCCCCCCCCCCC)[C@@H](OC(=O)CC(O)CCCCCCCCCCC)[C@@H]2O)OC(CO)C(O)[C@@H]1OC(=O)CC(CCCCCCCCCCC)OC(=O)CCCCCCCCCCC (some centres unmarked) [ASLA 470],–,–,–,–,–,–,weak agonists,1.9
